Experimental data from PubChem BioAssay (NCI).
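All cell lines were grown in 96-well plates and treated with compound for 48 hours. Abbreviation: GI50, concentration required for 50% inhibition of growth. TGI: total growth inhibition.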

How the values were obtained:
Experiment in all cases: growth of human tumour cells (NCI), 48 h
KM20L2 colon = test system: KM20L2 colon
HOP-18 NSCLC = test system: HOP-18 NSCLC
SNB-78 CNS = test system: SNB-78 CNS
DMS 114 small cell lung = test system: DMS 114 small cell lung
MDA-MB-231 breast = test system: MDA-MB-231 breast
MCF7 breast = test system: MCF7 breast
PC-3 prostate = test system: PC-3 prostate
MDA-MB-435 = test system: MDA-MB-435
HS 578T breast = test system: HS 578T breast
DU-145 prostate = test system: DU-145 prostate

| SMILES | TGI (KM20L2 colon) [µM] | TGI (HOP-18 NSCLC) [µM] | TGI (SNB-78 CNS) [µM] | TGI (DMS 114 small cell lung) [µM] | GI50 (MDA-MB-231 breast) [µM] | TGI (MDA-MB-231 breast) [µM] | GI50 (MCF7 breast) [µM] | TGI (MCF7 breast) [µM] | GI50 (PC-3 prostate) [µM] | TGI (PC-3 prostate) [µM] | GI50 (MDA-MB-435) [µM] | TGI (MDA-MB-435) [µM] | GI50 (HS 578T breast) [µM] | TGI (HS 578T breast) [µM] | GI50 (DU-145 prostate) [µM] | TGI (DU-145 prostate) [µM] |
| --- | --- | --- | --- | --- | --- | --- | --- | --- | --- | --- | --- | --- | --- | --- | --- | --- |
| C/C(=N/O)C1CC=C(S(=O)(=O)c2ccccc2)C1 (centres undefined) | > 100 | – | – | – | – | – | – | – | – | – | – | – | – | – | – | – |
| OC(c1ccccc1)(c1ccccc1)c1ccccn1 | > 100 | > 100 | > 100 | > 100 | – | – | – | – | – | – | – | – | – | – | – | – |
| O=C(CCc1nnc2s/c(=C\c3ccccc3)c(=O)n12)Nc1cc(Cl)ccc1Cl | > 100 | > 100 | > 100 | > 100 | – | – | – | – | – | – | – | – | – | – | – | – |
| COc1c(OC(C)=O)cc2c(OC(C)=O)c1CC(C)CC(OC)C(O)C(C)/C=C(\C)C(OC(N)=O)C(OC)/C=C\C=C(/C)C(=O)N2 (centres undefined) | > 100 | > 100 | > 100 | > 100 | – | – | – | – | – | – | – | – | – | – | – | – |
| CC(=O)NNc1nc(C)c(C(=O)NNC(=O)C(=O)Nc2ccc(C)c(C)c2)s1 | > 100 | > 100 | > 100 | > 100 | – | – | – | – | – | – | – | – | – | – | – | – |
| COC(=O)C(C(=O)C(=O)Nc1cccc(O)c1)c1nc2ccc(Cl)cc2[nH]c1=O (centres undefined) | > 100 | > 100 | > 100 | > 100 | – | – | – | – | – | – | – | – | – | – | – | – |
| N=C(N)n1ncc(Cl)c(Cl)c1=O | 19.3 | 2.86 | 3.98 | 3.66 | – | – | – | – | – | – | – | – | – | – | – | – |
| CC1=C(C(=O)Nc2cccc(C(F)(F)F)c2)C(c2ccc(O)cc2)C(C(=O)Nc2cccc(C(F)(F)F)c2)=C(C)N1 | 54.6 | – | 83.2 | 45.8 | – | – | – | – | – | – | – | – | – | – | – | – |
| O=c1[nH]c(=S)[nH]c2c1sc(=S)n2-c1ccccc1 | > 100 | > 100 | > 100 | > 100 | – | – | – | – | – | – | – | – | – | – | – | – |
| CCCOc1ccc(/C(Cl)=C(\C=O)c2ccc(OC)c(OC)c2)cc1OCCC | > 100 | > 100 | > 100 | 25.3 | – | – | – | – | – | – | – | – | – | – | – | – |
| COc1ccc(/C=C/c2cc(OC)c(O[Si](C)(C)C(C)(C)C)c(OC)c2)cc1 | > 100 | – | – | > 100 | – | – | – | – | – | – | – | – | – | – | – | – |
| C=C1C(=O)OC2CCCCC3OC3C12 (centres undefined) | 22.8 | 23.3 | 56.5 | – | – | – | – | – | – | – | – | – | – | – | – | – |
| CC(=O)CC(=O)CCCC(=O)Nc1ccc(Cl)cc1C | > 100 | > 100 | > 100 | > 100 | – | – | – | – | – | – | – | – | – | – | – | – |
| COc1cc2c(cc1OCCCCNC(=O)c1cc3ccccc3[nH]1)N=CC1CCCN1C2=O (centres undefined) | – | – | – | – | 14.9 | 66.8 | 6.82 | > 100 | 22 | > 100 | 20.3 | 74.6 | 16.1 | 71.5 | 5.31 | 69.8 |
| COc1ccc(/C=C2\N=C(c3ccccc3)OC2=O)c(OCc2ccccc2)c1 | > 100 | > 100 | – | 92.3 | – | – | – | – | – | – | – | – | – | – | – | – |
| COc1ccc(CN2c3ccccc3Sc3ccccc32)cc1F | – | – | – | – | 0.917 | > 88.1 | 0.464 | > 100 | 0.448 | > 100 | 0.198 | 0.469 | 0.458 | > 100 | 0.477 | > 100 |
| COc1ccc(Nc2c3ccccc3nc3c2c2ccccc2n3C)cc1 | – | – | – | – | 34.8 | > 100 | 28.3 | 86.3 | 11.1 | 54.2 | 30.5 | > 100 | 46.4 | > 100 | 15.6 | > 100 |
| C[N+](C)(C)CCOP(=O)(O)OP(=O)([O-])OCC1CCC(n2ccc(N)nc2=O)O1 (centres undefined) | – | – | – | – | – | > 100 | – | > 100 | – | > 100 | – | > 100 | – | > 100 | – | > 100 |
| CC(C)=CC/C=C(/C)[C@H]1CC[C@]2(C)[C@@H]1CC[C@@H]1[C@@]3(C)CCC(=O)NC(C)(C)[C@@H]3CC[C@]12C | – | – | – | – | 20.5 | 44.3 | 18.8 | 62.8 | 7.49 | 23.9 | 20.7 | 48.9 | 26.3 | 94.3 | 16.9 | 31.7 |
| CCN1CCC[C@H]1c1cc(O)c2c(c1OC)C[C@H]1C[C@H]3[C@H](N)C(=O)C(C(N)=O)=C(O)[C@@]3(O)C(=O)C1=C2O | – | – | – | – | 0.0431 | 0.717 | 0.241 | 6.1 | 0.151 | 8.76 | 0.0917 | 2.34 | 0.0495 | 1.12 | 0.0664 | 2.16 |
| Fc1ccc(-c2nc(-c3nc4ccc(Cl)cc4[nH]3)cc3c2[nH]c2ccccc23)cc1 | – | – | – | – | 2.88 | 13.6 | 3.27 | 16.6 | 2.09 | 6.95 | 3.59 | 14.3 | 3.38 | 57 | 3.41 | 12 |
| CCOC(=O)CC(=O)ON(C)C(=O)Cc1ccccc1 | > 100 | – | > 100 | > 100 | – | – | – | – | – | – | – | – | – | – | – | – |
| Cc1ccc2nc3c(Cl)cc(=O)cc-3sc2c1 | – | – | > 100 | 48.1 | – | – | – | – | – | – | – | – | – | – | – | – |
| O=C(CC(=O)N1N=C(n2ccc3ccccc32)CC1c1ccccc1)Nc1cccc(Cl)c1 (centres undefined) | > 100 | > 100 | > 100 | – | – | – | – | – | – | – | – | – | – | – | – | – |
| CC(=O)OC1(C#N)CC2OC1C1C2N1C(=O)c1ccccc1 (centres undefined) | > 100 | – | > 100 | > 100 | – | – | – | – | – | – | – | – | – | – | – | – |
| CN(C)CC(C(=O)c1ccccc1)c1ccccc1 (centres undefined) | – | – | – | – | 2.5 | 10.1 | 1.15 | 3.35 | 4.12 | 16.9 | 1.9 | 7.38 | 2.19 | 12.8 | 1.34 | 3.15 |
| Nc1nc(-c2ccccc2)c(-c2ccccc2)c(-c2nc(N)nc(-c3ccccc3)c2-c2ccccc2)n1 | – | – | – | – | – | > 100 | – | > 100 | – | > 100 | – | > 100 | – | > 100 | – | > 100 |
| COc1cc(/C=C/C(=O)C(=Cc2ccc(F)c(F)c2)C(=O)/C=C/c2ccc(O)c(OC)c2)ccc1O | – | – | – | – | 3.48 | 16.7 | 2.57 | 11 | 2.49 | 8.31 | 2.93 | 10.2 | 3.25 | 15.4 | 2.1 | 5.27 |
| COC(=O)[C@]12CC[C@@H](C)[C@H](C)[C@@H]1C1=CC[C@@H]3[C@@]4(C)C[C@@H](OC(=O)c5ccco5)[C@H](O)[C@@](C)(CO)[C@@H]4[C@H](O)C[C@@]3(C)[C@]1(C)CC2 | – | – | – | – | 2.23 | 4.8 | 1.8 | 3.71 | 2.6 | 6.73 | 2.29 | 5.75 | 2.24 | 7.4 | 2.78 | 8.11 |
